Test results reported in ChEMBL document CHEMBL5316344, “Homologation of the Alkyl Side Chain of Antimitotic Phenyl 4-(2-Oxo-3-alkylimidazolidin-1-yl)benzenesulfonate Prodrugs Selectively Targeting CYP1A1-Expressing Breast Cancers Improves Their Stability in Rodent Liver Microsomes” (J Med Chem, 2023).

Key:
MCF7 = assay: Antiproliferative activity against human MCF7 cells expressing CYP1A1 assessed as cell growth inhibition incubated for 48 hrs by sulforhodamine B assay; assay type: functional, cell-based; settings: MCF7, 48 h
M21 = assay: Antiproliferative activity against human M21 cells assessed as cell growth inhibition incubated for 48 hrs by sulforhodamine B assay; assay type: functional, cell-based; settings: M21, 48 h
HT-29 = assay: Antiproliferative activity against human HT-29 cells assessed as cell growth inhibition incubated for 48 hrs by sulforhodamine B assay; assay type: functional, cell-based; settings: HT-29, 48 h
[1] = Stability in rat liver microsomes assessed as half life incubated for 60 mins by HPLC analysis; assay type: ADME, Microsome
[2] = Stability in rat liver microsomes assessed as intrinsic clearance incubated for 60 mins by HPLC analysis; assay type: ADME, Microsome; settings: read-out: CLH
[3] = Stability in human liver microsomes assessed as intrinsic clearance incubated for 60 mins by HPLC analysis; assay type: ADME, Microsome; settings: read-out: CLH
[4] = Stability in mouse liver microsomes assessed as half life incubated for 60 mins by HPLC analysis; assay type: ADME, Microsome
[5] = Stability in mouse liver microsomes assessed as intrinsic clearance incubated for 60 mins by HPLC analysis; assay type: ADME, Microsome; settings: read-out: CLH
[6] = Stability in human liver microsomes assessed as half life incubated for 60 mins by HPLC analysis; assay type: ADME, Microsome
[7] = Selectivity ratio, ratio of IC50 for antiproliferative activity against human HT-29 cells to IC50 for antiproliferative activity against human MCF7 cells expressing CYP1A1; assay type: functional
[8] = Selectivity ratio, ratio of IC50 for antiproliferative activity against human M21 cells to IC50 for antiproliferative activity against human MCF7 cells expressing CYP1A1; assay type: functional
Cytochrome P450 1A1 = target: T1, Cytochrome P450 1A1 (Homo sapiens, UniProt P04798); assay: Binding affinity to human CYP1A1 assessed as inhibition of conversion of 7-ethoicyresorufin into fluorescent resorufin by measuring inhibition constant preincubated for 5 mins followed by […] addition measured every minute for 15 mins by EROD assay; assay type: ADME
T1 sequence (P04798 whole entry): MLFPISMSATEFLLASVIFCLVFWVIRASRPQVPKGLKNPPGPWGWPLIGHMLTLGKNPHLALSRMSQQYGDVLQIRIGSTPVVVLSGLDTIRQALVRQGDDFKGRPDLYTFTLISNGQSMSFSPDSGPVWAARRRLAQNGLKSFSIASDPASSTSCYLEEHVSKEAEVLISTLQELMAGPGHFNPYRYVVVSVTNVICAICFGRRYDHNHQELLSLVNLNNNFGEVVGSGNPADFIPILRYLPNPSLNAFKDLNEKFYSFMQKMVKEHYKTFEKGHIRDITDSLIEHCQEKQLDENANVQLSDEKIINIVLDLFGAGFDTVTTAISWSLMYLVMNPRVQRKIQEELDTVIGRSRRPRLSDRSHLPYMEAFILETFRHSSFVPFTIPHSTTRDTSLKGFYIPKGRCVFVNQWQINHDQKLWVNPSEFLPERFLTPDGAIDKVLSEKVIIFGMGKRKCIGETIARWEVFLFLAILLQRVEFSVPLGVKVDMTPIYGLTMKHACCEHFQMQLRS

Structure (SMILES) | IC50 (MCF7) | IC50 (HT-29) | IC50 (M21) | further results
CCCCCCCCN1CCN(c2ccc(S(=O)(=O)Oc3ccc(OC)c(OC)c3)cc2)C1=O | > 1.25 µM | > 1.25 µM | > 1.25 µM | 
CCCCCCCCN1CCN(c2ccc(S(=O)(=O)Oc3ccc(OC)cc3)cc2)C1=O | > 1.25 µM | > 1.25 µM | > 1.25 µM | 
CCCCCCCCN1CCN(c2ccc(S(=O)(=O)Oc3ccccc3)cc2)C1=O | > 1.25 µM | > 1.25 µM | > 1.25 µM | 
CCCCN1CCN(c2ccc(S(=O)(=O)Oc3cc(Cl)cc(Cl)c3)cc2)C1=O |  |  |  | half-life [1]: 47 min; microsomal CLint [2]: 29 µL/min/mg; microsomal CLint [3]: 16 µL/min/mg; half-life [4]: 15.4 min; microsomal CLint [5]: 90 µL/min/mg; half-life [6]: 89 min
CCCCCCN1CCN(c2ccc(S(=O)(=O)Oc3cc(Cl)cc(Cl)c3)cc2)C1=O | 0.25 µM | > 1.25 µM | > 1.25 µM | Ratio IC50 [7]: >5; Ratio IC50 [8]: >5
CCCCCCCCN1CCN(c2ccc(S(=O)(=O)Oc3cc(Cl)cc(Cl)c3)cc2)C1=O | > 1.25 µM | > 1.25 µM | > 1.25 µM | 
CCCCCCN1CCN(c2ccc(S(=O)(=O)Oc3cc(F)cc(F)c3)cc2)C1=O | 0.4 µM | > 2.5 µM | > 2.5 µM | Ratio IC50 [7]: >6.3; Ratio IC50 [8]: >6.3
CCCCCN1CCN(c2ccc(S(=O)(=O)Oc3ccc(OC)c(OC)c3)cc2)C1=O | 0.7 µM | > 12.5 µM | 0.5 µM | Ratio IC50 [7]: >18; Ratio IC50 [8]: >18
CCCCCN1CCN(c2ccc(S(=O)(=O)Oc3cc(F)cc(F)c3)cc2)C1=O | 1 µM | > 12.5 µM | > 12.5 µM | Ratio IC50 [7]: >13; Ratio IC50 [8]: >13
CCCCN1CCN(c2ccc(S(=O)(=O)Oc3cccc(I)c3)cc2)C1=O |  |  |  | half-life [1]: 12.7 min; microsomal CLint [2]: 109 µL/min/mg; microsomal CLint [3]: 14 µL/min/mg; half-life [4]: 12.3 min; microsomal CLint [5]: 109 µL/min/mg; half-life [6]: 100 min
CCCCCCCCN1CCN(c2ccc(S(=O)(=O)Oc3cc(F)cc(F)c3)cc2)C1=O | > 1.25 µM | > 1.25 µM | > 1.25 µM | 
CCCCCN1CCN(c2ccc(S(=O)(=O)Oc3ccccc3OC)cc2)C1=O | > 12.5 µM | > 12.5 µM | > 12.5 µM | 
CCCCCCCCN1CCN(c2ccc(S(=O)(=O)Oc3ccc(F)c(F)c3)cc2)C1=O | > 1.25 µM | > 1.25 µM | > 1.25 µM | 
CCCCCCCCN1CCN(c2ccc(S(=O)(=O)Oc3cc(OC)c(OC)c(OC)c3)cc2)C1=O | > 1.25 µM | > 1.25 µM | > 1.25 µM | 
CCCCCCN1CCN(c2ccc(S(=O)(=O)Oc3cc(OC)cc(OC)c3)cc2)C1=O | > 1.25 µM | > 1.25 µM | > 1.25 µM | 
CCCCCCCCN1CCN(c2ccc(S(=O)(=O)Oc3ccccc3OC)cc2)C1=O | > 2.5 µM | > 2.5 µM | > 2.5 µM | 
CCCCCCN1CCN(c2ccc(S(=O)(=O)Oc3cc(OC)c(OC)c(OC)c3)cc2)C1=O | 0.14 µM | > 2.5 µM | > 2.5 µM | Ratio IC50 [7]: >18; Ratio IC50 [8]: >18
O=c1cc(-c2ccccc2)oc2c1ccc1ccccc12 [ALPHA-NAPHTHOFLAVONE] |  |  |  | Ki (Cytochrome P450 1A1): 0.05 µM
CCCCN1CCN(c2ccc(S(=O)(=O)Oc3cc(OC)cc(OC)c3)cc2)C1=O |  |  |  | half-life [1]: 93 min; microsomal CLint [2]: 15 µL/min/mg; microsomal CLint [3]: 20.7 µL/min/mg; half-life [4]: 10.5 min; microsomal CLint [5]: 133 µL/min/mg; half-life [6]: 67 min
CCCN1CCN(c2ccc(S(=O)(=O)Oc3cc(OC)c(OC)c(OO)c3)cc2)C1=O |  |  |  | half-life [1]: 71 min; microsomal CLint [2]: 19.5 µL/min/mg; microsomal CLint [3]: 13 µL/min/mg; half-life [4]: 8 min; microsomal CLint [5]: 174 µL/min/mg; half-life [6]: 109 min
CCCCCN1CCN(c2ccc(S(=O)(=O)Oc3ccc(OC)cc3)cc2)C1=O | > 12.5 µM | > 12.5 µM | > 12.5 µM | 
CCCCCCN1CCN(c2ccc(S(=O)(=O)Oc3ccc(OC)c(OC)c3)cc2)C1=O | > 1.25 µM | > 1.25 µM | > 1.25 µM | 
CCCCN1CCN(c2ccc(S(=O)(=O)Oc3cccc(Cl)c3)cc2)C1=O |  |  |  | half-life [1]: 22 min; microsomal CLint [2]: 65 µL/min/mg; microsomal CLint [3]: 11 µL/min/mg; half-life [4]: 13.3 min; microsomal CLint [5]: 104 µL/min/mg; half-life [6]: 126 min
CCCCCCCCN1CCN(c2ccc(S(=O)(=O)Oc3cc(OC)cc(OC)c3)cc2)C1=O | > 2.5 µM | > 2.5 µM | > 2.5 µM | 
CCCCCCN1CCN(c2ccc(S(=O)(=O)Oc3ccccc3OC)cc2)C1=O | > 2.5 µM | > 2.5 µM | > 2.5 µM | 
CCCCCCCCN1CCN(c2ccc(S(=O)(=O)Oc3cc(Br)cc(Br)c3)cc2)C1=O | > 1.25 µM | > 1.25 µM | > 1.25 µM | 
CCCCCCN1CCN(c2ccc(S(=O)(=O)Oc3ccc(OC)cc3)cc2)C1=O | > 1.25 µM | > 1.25 µM | > 1.25 µM | 

Now from value to molecule, other results behind:

IC50 (MCF7) | IC50 (HT-29) | Structure (SMILES) | IC50 (M21) | further results
> 1.25 µM | > 1.25 µM | CCCCCCCCN1CCN(c2ccc(S(=O)(=O)Oc3cccc(I)c3)cc2)C1=O | > 1.25 µM | 
> 1.25 µM | > 1.25 µM | CCCCCCCCN1CCN(c2ccc(S(=O)(=O)Oc3cccc(F)c3)cc2)C1=O | > 1.25 µM | 
> 2.5 µM | > 2.5 µM | CCCCCCCCN1CCN(c2ccc(S(=O)(=O)Oc3cccc(OC)c3)cc2)C1=O | > 2.5 µM | 
> 2.5 µM | > 2.5 µM | CCCCCCN1CCN(c2ccc(S(=O)(=O)Oc3ccccc3)cc2)C1=O | > 2.5 µM | 
> 2.5 µM | > 2.5 µM | CCCCCCN1CCN(c2ccc(S(=O)(=O)Oc3cccc(F)c3)cc2)C1=O | > 2.5 µM | 
1.8 µM | > 2.5 µM | CCCCCCN1CCN(c2ccc(S(=O)(=O)Oc3cccc(Cl)c3)cc2)C1=O | > 2.5 µM | Ratio IC50 [7]: >1.4; Ratio IC50 [8]: >1.4
> 25 µM | > 25 µM | CCCCCN1CCN(c2ccc(S(=O)(=O)Oc3ccccc3)cc2)C1=O | > 25 µM | 
1.1 µM | > 1.25 µM | CCCCCCN1CCN(c2ccc(S(=O)(=O)Oc3cccc(I)c3)cc2)C1=O | > 1.25 µM | Ratio IC50 [7]: >1.1; Ratio IC50 [8]: >1.1
0.26 µM | > 12.5 µM | CCCCCN1CCN(c2ccc(S(=O)(=O)Oc3cccc(OC)c3)cc2)C1=O | > 12.5 µM | Ratio IC50 [7]: >48; Ratio IC50 [8]: >48
0.12 µM | > 1.25 µM | CCCCCCN1CCN(c2ccc(S(=O)(=O)Oc3cc(Br)cc(Br)c3)cc2)C1=O | 0.73 µM | Ratio IC50 [7]: >10; Ratio IC50 [8]: 6.1
1.2 µM | > 12.5 µM | CCCCCN1CCN(c2ccc(S(=O)(=O)Oc3cccc(F)c3)cc2)C1=O | > 12.5 µM | Ratio IC50 [7]: >10; Ratio IC50 [8]: >10
> 1.25 µM | > 1.25 µM | CCCCCCCCN1CCN(c2ccc(S(=O)(=O)Oc3cccc(Br)c3)cc2)C1=O | > 1.25 µM | 
> 12.5 µM | > 12.5 µM | CCCCCN1CCN(c2ccc(S(=O)(=O)Oc3ccc(F)c(F)c3)cc2)C1=O | > 12.5 µM | 
0.3 µM | > 12.5 µM | CCCCCN1CCN(c2ccc(S(=O)(=O)Oc3cccc(Br)c3)cc2)C1=O | > 12.5 µM | Ratio IC50 [7]: >42; Ratio IC50 [8]: >42
> 0.5 µM | > 0.5 µM | CCCCCN1CCN(c2ccc(S(=O)(=O)Oc3cc(Br)cc(Br)c3)cc2)C1=O | > 0.5 µM | 
> 1.25 µM | > 1.25 µM | CCCCCCN1CCN(c2ccc(S(=O)(=O)Oc3cccc(Br)c3)cc2)C1=O | > 1.25 µM | 
> 1.25 µM | > 1.25 µM | CCCCCCCCN1CCN(c2ccc(S(=O)(=O)Oc3cccc(Cl)c3)cc2)C1=O | > 1.25 µM | 
> 2.5 µM | > 2.5 µM | CCCCCCN1CCN(c2ccc(S(=O)(=O)Oc3ccc(F)c(F)c3)cc2)C1=O | > 2.5 µM | 
> 2.5 µM | > 2.5 µM | CCCCCCN1CCN(c2ccc(S(=O)(=O)Oc3cccc(OC)c3)cc2)C1=O | > 2.5 µM | 
